Species on record: Rattus norvegicus
Assay: DrugMatrix - Regimen: Daily Repeat
Format: toxicity, organism-based, Sprague-Dawley
Set-up: regimen Daily Repeat, gender Male, age 6-8 weeks
Conditions: in vivo, po, 56 mg/kg, route oral GAVAGE, […]
[1] = 72 h, tissue Plasma, dose level Low, time 3 day
[2] = 120 h, tissue Blood, dose level High, time 5 day
[3] = 120 h, tissue Blood, dose level Low, time 5 day
[4] = 120 h, tissue Plasma, dose level High, time 5 day
[5] = 120 h, tissue Plasma, dose level Low, time 5 day
[6] = tissue Blood, dose level High, time 28 day
[7] = tissue Plasma, dose level High, time 28 day

NC[C@@H]1O[C@H](O[C@H]2[C@@H](O)[C@H](O[C@@H]3[C@@H](O)[C@H](N)C[C@H](N)[C@H]3O[C@H]3O[C@H](CN)[C@@H](O)[C@H](O)[C@H]3N)O[C@@H]2CO)[C@H](N)[C@@H](O)[C@@H]1O [FRAMYCETIN]
CREATININE [1]: 0.19 mg/dL | GLUCOSE [1]: 156.33 mg/dL | LACTATE DEHYDROGENASE [1]: 107.33 u/L | LIPASE [1]: 10.33 u/L | PHOSPHORUS [1]: 10.8 mg/dL | POTASSIUM [1]: 5.83 MEQ/L | SODIUM [1]: 143.17 MEQ/L | TOTAL BILIRUBIN [1]: 0.1 mg/dL | TOTAL PROTEIN [1]: 5.97 G/DL | URIC ACID [1]: 0.4 mg/dL | BASOPHIL [2]: 0.36% | EOSINOPHIL [2]: 0.6% | ERYTHROCYTE COUNT [2]: 7.45 x10E6/uL | HEMATOCRIT [2]: 49.44% | HEMOGLOBIN [2]: 15.6 G/DL | LEUKOCYTE COUNT [2]: 6.84 x10E3/uL | LYMPHOCYTE [2]: 82.08% | MEAN CORPUSCULAR HEMOGLOBIN [2]: 20.94 pg | MEAN CORPUSCULAR HEMOGLOBIN CONCENTRATION [2]: 31.58 G/DL | MEAN CORPUSCULAR VOLUME [2]: 66.34 fL | MONOCYTE [2]: 1.68% | NEUTROPHIL [2]: 14.3% | PLATELET COUNT [2]: 1274.6 x10E3/uL | ABSOLUTE BASOPHIL [3]: 0 CELLS/uL | ABSOLUTE EOSINOPHIL [3]: 0 CELLS/uL | ABSOLUTE LYMPHOCYTE [3]: 7805 CELLS/uL | ABSOLUTE MONOCYTE [3]: 76.67 CELLS/uL | ABSOLUTE SEGMENTED NEUTROPHIL [3]: 785 CELLS/uL | BASOPHIL [3]: 0% | EOSINOPHIL [3]: 0% | ERYTHROCYTE COUNT [3]: 5.67 x10E6/uL | HEMATOCRIT [3]: 34.13% | HEMOGLOBIN [3]: 13.3 G/DL | LEUKOCYTE COUNT [3]: 8.67 x10E3/uL | LYMPHOCYTE [3]: 89.33% | MEAN CORPUSCULAR HEMOGLOBIN [3]: 23.47 pg | MEAN CORPUSCULAR HEMOGLOBIN CONCENTRATION [3]: 38.97 G/DL | MEAN CORPUSCULAR VOLUME [3]: 60.2 fL | MONOCYTE [3]: 1% | NEUTROPHIL [3]: 9.67% | NUCLEATED RED BLOOD CELLS [3]: 0 /100WBC | PLATELET COUNT [3]: 1077 x10E3/uL | ALANINE AMINOTRANSFERASE [4]: 29 u/L | ALBUMIN [4]: 3.74 G/DL | ALKALINE PHOSPHATASE [4]: 336 u/L | ASPARTATE AMINOTRANSFERASE [4]: 73.8 u/L | BLOOD UREA NITROGEN [4]: 6.6 mg/dL | CHLORIDE [4]: 109.6 MEQ/L | CHOLESTEROL [4]: 60.6 mg/dL | CREATINE PHOSPHOKINASE [4]: 307 u/L | CREATININE [4]: 0.28 mg/dL | GLUCOSE [4]: 128.6 mg/dL | PHOSPHORUS [4]: 13.88 mg/dL | POTASSIUM [4]: 6.96 MEQ/L | SODIUM [4]: 151.8 MEQ/L | TOTAL BILIRUBIN [4]: 0.16 mg/dL | TOTAL PROTEIN [4]: 6.22 G/DL | ALANINE AMINOTRANSFERASE [5]: 68.67 u/L | ALBUMIN [5]: 4.03 G/DL | ALKALINE PHOSPHATASE [5]: 434 u/L | ASPARTATE AMINOTRANSFERASE [5]: 94.67 u/L | BLOOD UREA NITROGEN [5]: 12 mg/dL | CARBON DIOXIDE [5]: 26.33 mmol/L | CHLORIDE [5]: 104 MEQ/L | CHOLESTEROL [5]: 74.67 mg/dL | CREATINE PHOSPHOKINASE [5]: 481.67 u/L | CREATININE [5]: 0.23 mg/dL | GLUCOSE [5]: 156.33 mg/dL | LACTATE DEHYDROGENASE [5]: 224 u/L | LIPASE [5]: 10.33 u/L | PHOSPHORUS [5]: 10.57 mg/dL | POTASSIUM [5]: 6.71 MEQ/L | SODIUM [5]: 148.83 MEQ/L | TOTAL BILIRUBIN [5]: 0.17 mg/dL | TOTAL PROTEIN [5]: 6.03 G/DL | URIC ACID [5]: 1.13 mg/dL | BASOPHIL [6]: 0.48% | EOSINOPHIL [6]: 0.51% | ERYTHROCYTE COUNT [6]: 8.01 x10E6/uL | HEMATOCRIT [6]: 48.92% | HEMOGLOBIN [6]: 15.88 G/DL | LEUKOCYTE COUNT [6]: 12.82 x10E3/uL | LYMPHOCYTE [6]: 83.46% | MEAN CORPUSCULAR HEMOGLOBIN [6]: 19.85 pg | MEAN CORPUSCULAR HEMOGLOBIN CONCENTRATION [6]: 32.47 G/DL | MEAN CORPUSCULAR VOLUME [6]: 61.12 fL | MONOCYTE [6]: 1.54% | NEUTROPHIL [6]: 12.95% | PLATELET COUNT [6]: 1208.1 x10E3/uL | ALANINE AMINOTRANSFERASE [7]: 26.9 u/L | ALBUMIN [7]: 3.85 G/DL | ALKALINE PHOSPHATASE [7]: 200.9 u/L | ASPARTATE AMINOTRANSFERASE [7]: 62.4 u/L | BLOOD UREA NITROGEN [7]: 11 mg/dL | CHLORIDE [7]: 107.1 MEQ/L | CHOLESTEROL [7]: 54.5 mg/dL | CREATINE PHOSPHOKINASE [7]: 177.2 u/L | CREATININE [7]: 0.38 mg/dL | GLUCOSE [7]: 135.2 mg/dL | PHOSPHORUS [7]: 11.16 mg/dL | POTASSIUM [7]: 6.5 MEQ/L | SODIUM [7]: 151.5 MEQ/L | TOTAL BILIRUBIN [7]: 0.22 mg/dL | TOTAL PROTEIN [7]: 6.52 G/DL
